Read-outs that look alike come from different tables or passages of the source.
Experiments:
[1] = system: CR6258 Tumor; assay: In vivo PDX model, Compound 478 and Cetuximab (Table 5a); design: species or system nude/nude mice; settings: for Average Tumor Volumes: CR6258, Cetuximab 0.25 mg/kg i.p. every third day, single or combined
Experimental: (§1) Immunocompromised nude/nude mice were inoculated in the right hind flank with cells or patient derived tumor samples harboring a KRas G12C mutation. […] The first group was administered vehicle only. […] The fourth group was administered the single agent dose of the KRas G12C inhibitor in combination with the single agent dose of the pan ErbB family inhibitor. […] Tumor volumes were measured using a caliper every two-three days and tumor volumes were calculated by the formula: 0.5×(Length×Width)^2.
(§2) In a related experiment, on Day 1, two sets of 20 nude/nude mice each were inoculated in the right hind limb with 5×10^6 CR6256 cells or CR2528 cells (PDX models). […] Tumor volumes were measured at pre-specified days set forth below.

[2] = system: CR2528 cells (PDX models); assay: In vivo PDX model, Compound 478 and Cetuximab (Table 5b); design: species or system nude/nude mice; settings: for Average Tumor Volumes: CR2528, Cetuximab 0.25 mg/kg i.p. every third day, single or combined
Experimental: as §1, §2

[3] = system: KYSE-410 cells; settings: KYSE-410-implanted mice; Day 61 (Treatment Day 50); single agent 100 mg/kg p.o. daily; Table 6a
Experimental: as §1
(§3) Tumor volumes were measured at pre-specified days set forth below.

[4] = system: H2122 cells; settings: H2122-implanted mice; Day 46 (Treatment Day 35); single agent 100 mg/kg p.o. daily; Table 6b
Experimental: as §1, §3

[5] = system: LU6405 cells (PDX model); assay: In vivo PDX model, Compound 478 and Afatinib (Table 4c); settings: for Average Tumor Volumes: LU6405, Afatinib 12.5 mg/kg, single or combined
Experimental: as §1, §3

[6] = system: H2122 cells; assay: In vivo tumor model, Compound 478 and Afatinib (Table 4a); settings: for Average Tumor Volumes: H2122, Afatinib 12.5 mg/kg, single or combined
Experimental: as §1, §3

[7] = system: KYSE-410 cells; assay: In vivo tumor model, Compound 478 and Afatinib (Table 4b); settings: for Average Tumor Volumes: KYSE-410, Afatinib 12.5 mg/kg, single or combined
Experimental: as §1, §3

[8] = Day 11 post implant (treatment start), Compound 478 100 mg/kg p.o. daily
[9] = Day 11 post implant (treatment start), p.o. daily: Compound 478 100 mg/kg
[10] = Day 14 post implant, p.o. daily from Day 11: Compound 478 100 mg/kg
[11] = Day 18 post implant, p.o. daily from Day 11: Compound 478 100 mg/kg
[12] = Day 21 post implant, p.o. daily from Day 11: Compound 478 100 mg/kg
[13] = Day 25 post implant, p.o. daily from Day 11: Compound 478 100 mg/kg
[14] = Day 28 post implant, p.o. daily from Day 11: Compound 478 100 mg/kg
[15] = Day 32 post implant, p.o. daily from Day 11: Compound 478 100 mg/kg
[16] = Day 34 post implant, p.o. daily from Day 11: Compound 478 100 mg/kg

In the case of `C=C(F)C(=O)N1CCN(c2nc(OC[C@@H]3CCCN3C)nc3c2CCN(c2cccc4cccc(Cl)c24)C3)C[C@@H]1CC#N` [Compound 478], the tumor regression ([1]; CR6258-implanted mice, Day 37 (Treatment Day 27), Compound 478 100 mg/kg p.o. daily alone or with cetuximab 0.25 mg/kg i.p. every three days) was 71%, the “Average Tumor Volumes” value [1, 8] was 190.54 mm^3 and the “Average Tumor Volumes” value ([1]; Day 18 post implant, from Day 11: Compound 478 100 mg/kg p.o. daily) was 256.91 mm^3. The “Average Tumor Volumes” value ([1]; Day 25 post implant, from Day 11: Compound 478 100 mg/kg p.o. daily) was 201.00 mm^3, the “Average Tumor Volumes” value ([1]; Day 28 post implant, from Day 11: Compound 478 100 mg/kg p.o. daily) was 128.77 mm^3 and the “Average Tumor Volumes” value ([1]; Day 32 post implant, from Day 11: Compound 478 100 mg/kg p.o. daily) was 77.44 mm^3. The “Average Tumor Volumes” value ([1]; Day 35 post implant, from Day 11: Compound 478 100 mg/kg p.o. daily) was 56.15 mm^3, the “Average Tumor Volumes” value ([1]; Day 39 post implant, from Day 11: Compound 478 100 mg/kg p.o. daily) was 44.24 mm^3 and the “Average Tumor Volumes” value ([1]; Day 42 post implant, from Day 11: Compound 478 100 mg/kg p.o. daily) was 41.80 mm^3. The “Average Tumor Volumes” value ([1]; Day 46 post implant, from Day 11: Compound 478 100 mg/kg p.o. daily) was 29.92 mm^3, the “Average Tumor Volumes” value ([1]; Day 49 post implant, from Day 11: Compound 478 100 mg/kg p.o. daily) was 19.79 mm^3 and the single-agent anti-tumor activity ([2]; CR2528-implanted mice, Day 34 (Treatment Day 24), 100 mg/kg p.o. daily) was “no single-agent anti-tumor activity”. The “Average Tumor Volumes” value [2, 8] was 265.11 mm^3, the “Average Tumor Volumes” value ([2]; Day 14 post implant, from Day 11: Compound 478 100 mg/kg p.o. daily) was 350.48 mm^3 and the “Average Tumor Volumes” value ([2]; Day 17 post implant, from Day 11: Compound 478 100 mg/kg p.o. daily) was 434.64 mm^3. The “Average Tumor Volumes” value ([2]; Day 20 post implant, from Day 11: Compound 478 100 mg/kg p.o. daily) was 656.73 mm^3, the “Average Tumor Volumes” value ([2]; Day 24 post implant, from Day 11: Compound 478 100 mg/kg p.o. daily) was 950.91 mm^3 and the “Average Tumor Volumes” value ([2]; Day 27 post implant, from Day 11: Compound 478 100 mg/kg p.o. daily) was 1252.80 mm^3. The “Average Tumor Volumes” value ([2]; Day 31 post implant, from Day 11: Compound 478 100 mg/kg p.o. daily) was 1713.13 mm^3, the “Average Tumor Volumes” value ([2]; Day 34 post implant, from Day 11: Compound 478 100 mg/kg p.o. daily) was 2757.63 mm^3 and the tumor growth inhibition [3] was 71%. The tumor regression [4] was 3%, the “Average Tumor Volumes” value [5, 9] was 256.06 mm^3 and the “Average Tumor Volumes” value [5, 10] was 308.98 mm^3. The “Average Tumor Volumes” value [5, 11] was 324.46 mm^3, the “Average Tumor Volumes” value [5, 12] was 329.09 mm^3 and the “Average Tumor Volumes” value [5, 13] was 310.21 mm^3. The “Average Tumor Volumes” value [5, 14] was 290.88 mm^3, the “Average Tumor Volumes” value [5, 15] was 257.34 mm^3 and the “Average Tumor Volumes” value [5, 16] was 249.19 mm^3. The tumor growth inhibition ([5]; LU6405-implanted mice, Day 34 (Treatment Day 24), single agent 100 mg/kg p.o. daily) was 96%, the “Average Tumor Volumes” value [6, 9] was 325.05 mm^3 and the “Average Tumor Volumes” value ([6]; Day 13 post implant, p.o. daily from Day 11: Compound 478 100 mg/kg) was 339.80 mm^3. For the same compound, the “Average Tumor Volumes” value ([6]; Day 15 post implant, p.o. daily from Day 11: Compound 478 100 mg/kg) was 337.58 mm^3, the “Average Tumor Volumes” value [6, 11] was 381.78 mm^3 and the “Average Tumor Volumes” value ([6]; Day 20 post implant, p.o. daily from Day 11: Compound 478 100 mg/kg) was 462.40 mm^3. The “Average Tumor Volumes” value ([6]; Day 22 post implant, p.o. daily from Day 11: Compound 478 100 mg/kg) was 479.48 mm^3, the “Average Tumor Volumes” value [6, 13] was 492.76 mm^3 and the “Average Tumor Volumes” value ([6]; Day 27 post implant, p.o. daily from Day 11: Compound 478 100 mg/kg) was 541.06 mm^3. The “Average Tumor Volumes” value ([6]; Day 29 post implant, p.o. daily from Day 11: Compound 478 100 mg/kg) was 537.14 mm^3, the “Average Tumor Volumes” value [6, 15] was 547.06 mm^3 and the “Average Tumor Volumes” value [6, 16] was 546.96 mm^3. The tumor growth inhibition ([6]; H2122 tumor bearing mice, Day 22 (Treatment Day 10), single agent, Compound 478 100 mg/kg, afatinib 12.5 mg/kg p.o. daily) was 85%, the “Average Tumor Volumes” value [7, 9] was 307.30 mm^3 and the “Average Tumor Volumes” value [7, 10] was 274.64 mm^3. The “Average Tumor Volumes” value ([7]; Day 16 post implant, p.o. daily from Day 11: Compound 478 100 mg/kg) was 311.34 mm^3, the “Average Tumor Volumes” value [7, 11] was 297.62 mm^3 and the “Average Tumor Volumes” value [7, 12] was 338.18 mm^3. The “Average Tumor Volumes” value ([7]; Day 23 post implant, p.o. daily from Day 11: Compound 478 100 mg/kg) was 320.42 mm^3, the “Average Tumor Volumes” value [7, 13] was 358.68 mm^3 and the “Average Tumor Volumes” value [7, 14] was 459.20 mm^3. The “Average Tumor Volumes” value ([7]; Day 30 post implant, p.o. daily from Day 11: Compound 478 100 mg/kg) was 441.60 mm^3, the “Average Tumor Volumes” value [7, 15] was 480.62 mm^3 and the “Average Tumor Volumes” value ([7]; Day 37 post implant, p.o. daily from Day 11: Compound 478 100 mg/kg) was 525.86 mm^3. For the same compound, the tumor growth inhibition ([7]; KYSE-410 tumor bearing mice, Day 37 (Treatment Day 27), single agent 100 mg/kg p.o. daily) was 64%.

Reference: patent publication US12336995B2, “Combination therapies” (Mirati Therapeutics, Inc., priority 2018, dated 2025)
